Experimental data: US11572347B2 (priority 2017, dated 2023)
Like-named read-outs stand apart in the source and are kept apart here. Blank lines part the entries; values can stand above or below the molecule they belong to.

Assays:
PDE4 = system: PDE4
Procedure: HEK293 cell culture and transfection: HEK293 cells were cultured in DMEM (Gibco life technologies) containing 10% FBS, 100 units/ml penicillin-streptomycin, and 2 mM L-glutamine. Cell transfections were performed with the PIE Transfection reagent (Qiagen) according to manufacturer's instructions.
Forster Resonance Energy Transfer (FRET):Measurements to track PKA activity. […] Images were acquired using a Zeiss AXIO inverted fluorescence microscope (Carl Zeiss micrscopy, LLC, Thomwood, N.Y.) with a 40× oil-emersion objective lens and a charge-coupled device camera controlled by Metafluor software (Molecular Devices, Sunnyvale, Calif.). […] Images were subjected to background subtraction, and were acquired every 30 seconds with exposure time of 200 ms. The donor/acceptor FRET ratio was calculated and normalized to the ratio value of baseline.
Statistics: Statistical analysis was performed using GraphPad Prism 6 software (La Jolla, Calif.). Results are shown as mean±SEM and were analyzed by one way ANOVA with post hoc Bonferroni's multiple compression test.

in vivo = details: rat
Procedure: All the animal experiments were performed according to the protocols approved by the Animal Use and Care Committee of University of California-Davis. Male Sprague-Dawley rats (n=4, 8 week old, 250-300 g) were used in the pharmacokinetic study of sEH/PDE4 dual inhibitors. […] Inhibitor was dissolved in 100% polyethylene glycol 300 to form a clear solution. […] Each blood sample was immediately transferred to a tube containing […] of water and mixed by Vortex for 1 min, all samples were stored at −80° C. until analysis.

[1] = system: inflammatory pain (rat TWL-LPS model); details: for TWL threshold time course (analgesic effect): over 4 h
Procedure: Control animals received a 50 μl saline intraplantar sham injection in the right back paw.
Student t-test was performed in Microsoft Excel with a significance of P<0.05. Results are shown as mean±SD.

[2] = over the following days post treatment
[3] = male, Sprague-Dawley, in vivo, 0.3 mg/kg
[4] = male, Sprague-Dawley, po, 3 mg/kg
[5] = male, Sprague-Dawley, po, 30 mg/kg
[6] = male, Sprague-Dawley, po, 100 mg/kg
[7] = rat TWL-LPS model, 1 mg/kg oral, 0.5 h
[8] = rat TWL-LPS model, 3 mg/kg oral, 0.5 h

concentration at 0 h (in vivo; [3]): 0 nM | concentration at 1 h (in vivo; [3]): 0 nM | concentration at 2 h (in vivo; [3]): 0 nM | concentration at 4 h (in vivo; [3]): 0 nM | concentration at 8 h (in vivo; [3]): 0 nM | concentration at 12 h (in vivo; [3]): 0 nM | concentration at 24 h (in vivo; [3]): 0 nM | concentration at 48 h (in vivo; [3]): 0 nM
Molecule: COc1ccc(CNC(=O)c2ccc(OC)c(OC3CCCC3)c2)c(C(F)(F)F)c1 [Compound 1, 3-(cyclopentyloxy)-4-methoxy-N-(4-methoxy-2-(trifluoromethyl)benzyl)benzamide]
Percentage change (PDE4): 240%

concentration at 0 h (in vivo; [3]): 0 nM | concentration at 0.5 h (in vivo; [3]): 4 ± 1.3 nM | concentration at 1 h (in vivo; [3]): 2 ± 0.3 nM | concentration at 2 h (in vivo; [3]): 2 ± 0.3 nM | concentration at 4 h (in vivo; [3]): 2 ± 0.2 nM | concentration at 8 h (in vivo; [3]): 1 ± 0.1 nM | concentration at 12 h (in vivo; [3]): 1 ± 0.2 nM | concentration at 24 h (in vivo; [3]): 0.3 ± 0.01 nM | concentration at 48 h (in vivo; [3]): 0 nM | plasma concentration reached (in words) (in vivo; cassette 0.3 mg/kg PO): one digit nM
Molecule: COc1ccc(CNC(=O)c2cccc(OC3CCCC3)c2)c(C(F)(F)F)c1 [Compound 19, 3-(Cyclopentyloxy)-N-(4-methoxy-2-(trifluoromethyl)benzyl)benzamide]
Percentage change (PDE4): 147%

Molecule: COc1ccc(CNC(=O)C2CCNCC2)c(C(F)(F)F)c1 [Compound 22, N-(4-Methoxy-2-(trifluoromethyl)benzyl)piperidine-4-carboxamide]
% cAMP increase rel. to Rolipram @ 1 μM (PDE4): higher cAMP increase than Rolipram | Percentage change (PDE4): 138%

Molecule: CCC(=O)N1CCC(C(=O)NCc2ccc(OC)cc2C(F)(F)F)CC1 [Compound 23/RBH61, N-(4-methoxy-2-(trifluoromethyl)benzyl)-1-propionylpiperidine-4-carboxamide]
concentration at 0 h (in vivo; [3]): 0 nM | concentration at 1 h (in vivo; [3]): 40 ± 12 nM | concentration at 2 h (in vivo; [3]): 25 ± 6 nM | concentration at 8 h (in vivo; [3]): 0 nM | concentration at 12 h (in vivo; [3]): 0 nM | concentration at 24 h (in vivo; [3]): 0 nM | concentration at 48 h (in vivo; [3]): 0 nM | concentration at 0 h (in vivo; [4]): 0 nM | concentration at 1 h (in vivo; [4]): 400 ± 15 nM | concentration at 2 h (in vivo; [4]): 120 ± 7 nM | concentration at 4 h (in vivo; [4]): 0 nM | concentration at 8 h (in vivo; [4]): 0 nM | concentration at 12 h (in vivo; [4]): 0 nM | concentration at 24 h (in vivo; [4]): 0 nM | concentration at 48 h (in vivo; [4]): 0 nM | time until compound is cleared from the blood (in vivo; [4]): 4 h | concentration at 0 h (in vivo; [5]): 0 nM | concentration at 1 h (in vivo; [5]): 805 nM | concentration at 2 h (in vivo; [5]): 527 nM | concentration at 8 h (in vivo; [5]): 29 nM | concentration at 12 h (in vivo; [5]): 0 nM | concentration at 24 h (in vivo; [5]): 0 nM | concentration at 48 h (in vivo; [5]): 0 nM | concentration at 0 h (in vivo; [6]): 0 nM | concentration at 1 h (in vivo; [6]): 1380 nM | concentration at 2 h (in vivo; [6]): 923 nM | concentration at 4 h (in vivo; [6]): 477 nM | concentration at 8 h (in vivo; [6]): 254 nM | concentration at 12 h (in vivo; [6]): 0 nM | concentration at 24 h (in vivo; [6]): 0 nM | concentration at 48 h (in vivo; [6]): 0 nM | bioavailability among the cassette compounds (in vivo; cassette 0.3 mg/kg PO): best bioavailability | time after which compound is cleared from plasma (in vivo; cassette 0.3 mg/kg PO): 4 h | TWL threshold in naïve animals (analgesic effect) ([1]; naïve rats, no LPS): no analgesic effect | TWL threshold at 0.5 h (pain relief vs LPS control) [1, 7]: significant pain relief | TWL threshold time course (analgesic effect) ([1]; rat TWL-LPS model, 1 mg/kg oral): pain relief | TWL threshold at 0.5 h (pain relief vs LPS control) [1, 8]: significant pain relief | TWL threshold time course (analgesic effect) ([1]; rat TWL-LPS model, 3 mg/kg oral): pain relief | analgesic effect compared to single target treatments and their combination ([1]; rat TWL-LPS model, 3 mg/kg, 0.5 h): significantly higher | urine excretion [2]: increase in urine excretion

Molecule: CCCC(=O)N1CCC(C(=O)NCc2ccc(OC)cc2C(F)(F)F)CC1 [Compound 24, 1-Butyryl-N-(4-methoxy-2-(trifluoromethyl)benzyl)piperidine-4-carboxamide]
Percentage change (PDE4): 110%

Molecule: CCN1CCC(C(=O)NCc2ccc(OC)cc2C(F)(F)F)CC1 [Compound 26, 1-ethyl-N-(4-methoxy-2-(trifluoromethyl)benzyl)piperidine-4-carboxamide]
Percentage change (PDE4): 62%

Molecule: COc1ccc(CNC(=O)C2CCN(C(=O)C3CC3)CC2)c(C(F)(F)F)c1 [Compound 28, 1-(cyclopropanecarbonyl)-N-(4-methoxy-2-(trifluoromethyl)benzyl)piperidine-4-carboxamide]
% cAMP increase rel. to Rolipram @ 1 μM (PDE4): 230 ± 15%

Molecule: TPPU [reference compound]
% cAMP increase rel. to Rolipram @ 1 μM (PDE4): 40 ± 10% | Percentage change (PDE4): 37% | mean FRET ratio change (PDE4): 1.015 | TWL threshold at 0.5 h (pain relief vs LPS control) [1, 7]: do not result in an equal analgesic effect | TWL threshold at 0.5 h (pain relief vs LPS control) [1, 8]: significant pain relief
